Reference: US20260007758A1, “SO[…]-2 RECEPTOR (SST2R) NON-PEPTIDE DRUG CONJUGATES AND USES THEREOF” (Crinetics Pharmaceuticals, Inc., priority 2024, published 2026)
pEC50: −log10 of the molar value.

How the values were obtained:
Type in all cases: cell-based
SST2 = molecular target: T1, SST2 (Homo sapiens, UniProt P30874); assay: PathHunter CHO-K1 SST2 Internalization Assay; settings: PathHunter CHO-K1 SST2 cells; 90 min at 37 C; luminescence; read-out: Internalization EC50
T1 construct: host or cells: PathHunter CHO-K1 SST2 cells
Outline: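 Four-parameter nonlinear fits of background-corrected luminescence (duplicate means) gave IC50s. NDCs were serially diluted 1:3 over 11 points from a 10 uM final top concentration and incubated 90 min at 37 C with human SST2 CHO-K1 cells plated 48 h earlier at 2500/well. Beta-Glo read-out developed 60 min at RT.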

[1] = tested on: NCI-H524 human small cell lung cancer cells; assay: H524 assay: inhibition of cell proliferation (CellTiter Glo); settings: 2 h treatment, washout, additional 70 h incubation
Outline: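 Proliferation was measured by CellTiter Glo 70 h after a washout that followed a 2 h pulse of NDC. Doses were an 11-point, two-fold dilution series from 1 uM. IC50 was fitted with a four-parameter model to luminescence-based % inhibition relative to control cells.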

[2] = molecular target: T2, human somatostatin receptor subtype 2 (Homo sapiens, UniProt P30874); assay: Functional assay for SSTR2 agonists (HTRF cAMP); settings: CHO-K1 cells stably expressing human SST2; NKH477-stimulated cAMP; 20 min at 37 C; read-out: hSST2 cAMP Avg EC50
T2 construct: expressed in transfected cells
Outline: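 Agonist activity read as fall in intracellular cAMP: HTRF 665/620 nm ratio regressed to a cAMP standard curve, EC50 fitted. Stable human SSTR2 CHO-K1 cells exposed 20 min at 37 °C to compound, final concentrations typically 0-10,000 nM.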

T1 sequence (P30874 whole entry): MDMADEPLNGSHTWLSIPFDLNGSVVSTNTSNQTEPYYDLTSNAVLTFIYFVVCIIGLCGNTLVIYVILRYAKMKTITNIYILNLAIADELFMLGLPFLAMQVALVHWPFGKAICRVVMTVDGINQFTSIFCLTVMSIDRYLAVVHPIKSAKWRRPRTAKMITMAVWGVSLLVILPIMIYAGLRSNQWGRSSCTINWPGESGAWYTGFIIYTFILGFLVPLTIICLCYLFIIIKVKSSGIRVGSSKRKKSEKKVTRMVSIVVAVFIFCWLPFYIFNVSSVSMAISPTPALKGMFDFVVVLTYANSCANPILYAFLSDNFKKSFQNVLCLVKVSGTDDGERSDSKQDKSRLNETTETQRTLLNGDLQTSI
T2 sequence (P30874 whole entry): as above

Row | SMILES | pEC50 (SST2) | pEC50 [1] | pEC50 [2]
1 | CC[C@H](C)[C@@H]([C@@H](CC(=O)N1CCC[C@H]1[C@H](OC)[C@@H](C)C(=O)N[C@H](C)[C@@H](O)c1ccccc1)OC)N(C)C(=O)[C@@H](NC(=O)[C@H](C(C)C)N(C)C(=O)OCc1ccc(NC(=O)[C@H](CCCNC(N)=O)NC(=O)[C@@H](NS(=O)(=O)C[C@H](C)NC(=O)CCOCCC(=O)NCCNc2ncc(-c3cc(C)cc(F)c3)c(N3CCC(N)CC3)c2-c2nc3ccc(Cl)cc3[nH]2)C(C)C)c(O[C@@H]2O[C@H](C(=O)N(C)CC(=O)O)[C@@H](O)[C@H](O)[C@H]2O)c1)C(C)C [Compound 220] | 8.51 | 8.12 | 10.11
2 | CC[C@H](C)[C@@H]([C@@H](CC(=O)N1CCC[C@H]1[C@H](OC)[C@@H](C)C(=O)N[C@H](C)[C@@H](O)c1ccccc1)OC)N(C)C(=O)[C@@H](NC(=O)[C@H](C(C)C)N(C)C(=O)OCc1ccc(NC(=O)C(CCCNC(N)=O)NC(=O)[C@@H](NC(=O)c2cc(NC(=O)CCOCCC(=O)N(C)CC(=O)NCCNc3ncc(-c4cc(C)cc(F)c4)c(N4CCC(N)CC4)c3-c3nc4ccc(Cl)cc4[nH]3)cc(C(=O)NCC(=O)NCCN)c2)C(C)C)cc1)C(C)C (stereo partly drawn) [Compound 175] | 7.74 | 7.25 | 9.39
3 | CC[C@H](C)[C@@H]([C@@H](CC(=O)N1CCC[C@H]1[C@H](OC)[C@@H](C)C(=O)N[C@H](C)[C@@H](O)c1ccccc1)OC)N(C)C(=O)[C@@H](NC(=O)C(C(C)C)N(C)C(=O)OCc1ccc(NC(=O)[C@H](CCCNC(N)=O)NC(=O)[C@@H](NC(=O)CCOCCC(=O)NCCNc2ncc(-c3cc(C)cc(F)c3)c(N3CCC(N)CC3)c2-c2nc3ccc(Cl)cc3[nH]2)C(C)C)c(O[C@@H]2O[C@H](C(=O)N3CCN(CCO)CC3)[C@@H](O)[C@H](O)[C@H]2O)c1)C(C)C (stereo partly drawn) [Compound 229] | 8.32 | 8.40 | 10.00
4 | CC[C@H](C)[C@@H]([C@@H](CC(=O)N1CCC[C@H]1[C@H](OC)[C@@H](C)C(=O)N[C@H](C)[C@@H](O)c1ccccc1)OC)N(C)C(=O)[C@@H](NC(=O)[C@H](C(C)C)N(C)C(=O)OCc1ccc(NC(=O)[C@H](CCCNC(N)=O)NC(=O)[C@@H](NC(=O)c2cc(NCCOCCC(=O)NCCNc3ncc(-c4cc(C)cc(F)c4)c(N4CCC(N)CC4)c3-c3nc4ccc(Cl)cc4[nH]3)cc(C(=O)NCC(=O)S(N)(=O)=O)c2)C(C)C)cc1)C(C)C [Compound 188] | 8.57 | 6.17 | 9.47
5 | CC[C@H](C)[C@@H]([C@@H](CC(=O)N1CCC[C@H]1[C@H](OC)[C@@H](C)C(=O)N[C@H](C)[C@@H](O)c1ccccc1)OC)N(C)C(=O)[C@@H](NC(=O)[C@H](C(C)C)N(C)C(=O)OCc1ccc(NC(=O)[C@H](CCCNC(N)=O)NC(=O)[C@@H](NC(=O)CCOCCOCCOCCOCCC(=O)N(C)CC(=O)NCCNc2ncc(-c3cc(C)cc(F)c3)c(N3CCC(N)CC3)c2-c2nc3ccc(Cl)cc3[nH]2)C(C)C)c(OCC(=O)O)c1)C(C)C [Compound 24] | 7.70 | 7.00 | 9.70
6 | CC[C@H](C)[C@@H]([C@@H](CC(=O)N1CCC[C@H]1[C@H](OC)[C@@H](C)C(=O)N[C@H](C)[C@@H](O)c1ccccc1)OC)N(C)C(=O)[C@@H](NC(=O)[C@H](C(C)C)N(C)C(=O)OCc1ccc(NC(=O)[C@H](CCCNC(N)=O)NC(=O)[C@@H](NC(=O)CCOCCC(=O)N(C)CC(=O)NCCNc2ncc(-c3cc(C)cc(F)c3)c(N3CCC(N)CC3)c2-c2nc3ccc(Cl)cc3[nH]2)C(C)C)c(O[C@@H]2O[C@H](C(=O)O)[C@@H](O)[C@H](O)[C@H]2O)c1)C(C)C [Compound 133] | 8.28 | 5.72 | 10.01
7 | CC[C@H](C)[C@@H]([C@@H](CC(=O)N1CCC[C@H]1[C@H](OC)[C@@H](C)C(=O)N[C@H](C)[C@@H](O)c1ccccc1)OC)N(C)C(=O)[C@@H](NC(=O)[C@H](C(C)C)N(C)C(=O)OCc1ccc(NC(=O)[C@H](CCCNC(N)=O)NC(=O)[C@@H](NC(=O)C[C@@H](N)C(=O)NCCOCCC(=O)NCCNc2ncc(-c3cc(C)cc(F)c3)c(N3CCC(N)CC3)c2-c2nc3ccc(Cl)cc3[nH]2)C(C)C)c(O[C@@H](C)C(=O)O)c1)C(C)C [Compound 200] | 8.41 | 7.64 | 9.74
8 | CC[C@H](C)[C@@H]([C@@H](CC(=O)N1CCC[C@H]1[C@H](OC)[C@@H](C)C(=O)N[C@H](C)[C@@H](O)c1ccccc1)OC)N(C)C(=O)[C@@H](NC(=O)[C@H](C(C)C)N(C)C(=O)OCc1ccc(NC(=O)[C@H](CCCNC(N)=O)NC(=O)[C@@H](NC(=O)Cn2cc(CCOCCC(=O)NCCNc3ncc(-c4cc(C)cc(F)c4)c(N4CCC(N)CC4)c3-c3nc4cc(Cl)ccc4[nH]3)nn2)C(C)C)c(O[C@@H]2O[C@H](C(=O)N3CCNCC3)[C@@H](O)[C@H](O)[C@H]2O)c1)C(C)C [Compound 238] | 8.33 | 8.54 | 9.92
9 | CC[C@H](C)[C@@H]([C@@H](CC(=O)N1CCC[C@H]1[C@H](OC)[C@@H](C)C(=O)N[C@H](C)[C@@H](O)c1ccccc1)OC)N(C)C(=O)[C@@H](NC(=O)[C@H](C(C)C)N(C)C(=O)OCc1ccc(NC(=O)[C@H](C)NC(=O)[C@@H](NC(=O)CCOCCC(=O)N(C)CC(=O)NCCNc2ncc(-c3cc(C)cc(F)c3)c(N3CCC(N)CC3)c2-c2nc3ccc(Cl)cc3[nH]2)C(C)C)c(O[C@@H]2O[C@H](C(=O)O)[C@@H](O)[C@H](O)[C@H]2O)c1)C(C)C [Compound 134] | 8.68 | 5.92 | 9.96
10 | CC[C@H](C)[C@@H]([C@@H](CC(=O)N1CCC[C@H]1[C@H](OC)[C@@H](C)C(=O)N[C@H](C)[C@@H](O)c1ccccc1)OC)N(C)C(=O)[C@@H](NC(=O)[C@H](C(C)C)N(C)C(=O)OCc1ccc(NC(=O)[C@H](C)NC(=O)[C@@H](NC(=O)CN(C)C(=O)CCOCCC(=O)NCCNc2ncc(-c3cc(C)cc(F)c3)c(N3CCC(N)CC3)c2-c2nc3ccc(Cl)cc3[nH]2)C(C)C)c(O[C@@H]2O[C@H](C(=O)O)[C@@H](O)[C@H](O)[C@H]2O)c1)C(C)C [Compound 111] | 8.06 | 7.72 | 10.34
11 | CC[C@H](C)[C@@H]([C@@H](CC(=O)N1CCC[C@H]1[C@H](OC)[C@@H](C)C(=O)N[C@H](C)[C@@H](O)c1ccccc1)OC)N(C)C(=O)[C@@H](NC(=O)[C@H](C(C)C)N(C)C(=O)OCc1ccc(NC(=O)[C@H](C)NC(=O)[C@@H](NC(=O)C[C@@H](N)C(=O)NCCOCCC(=O)NCCNc2ncc(-c3cc(C)cc(F)c3)c(N3CCC(NC)CC3)c2-c2nc3ccc(Cl)cc3[nH]2)C(C)C)c(O[C@@H]2O[C@H](C(=O)O)[C@@H](O)[C@H](O)[C@H]2O)c1)C(C)C [Compound 120] | 8.28 | 7.70 | 10.06
12 | CC[C@H](C)[C@@H]([C@@H](CC(=O)N1CCC[C@H]1[C@H](OC)[C@@H](C)C(=O)N[C@H](C)[C@@H](O)c1ccccc1)OC)N(C)C(=O)[C@@H](NC(=O)[C@H](C(C)C)N(C)C(=O)OCc1ccc(NC(=O)[C@H](CCCNC(N)=O)NC(=O)[C@@H](NC(=O)[C@H](CCC(=O)O)NC(=O)CCOCCC(=O)NCCNc2ncc(-c3cc(C)cc(F)c3)c(N3CCC(N)CC3)c2-c2nc3ccc(Cl)cc3[nH]2)C(C)C)cc1C(=O)NCCNC)C(C)C [Compound 57] | 8.18 | 6.00 | 9.51
